Consider 37 compounds from patent publication US20250163057A1, “DCN-1 MODULATING COMPOUNDS AND METHODS OF USE THEREOF” (Cellarity, Inc., priority 2023, published 2025).

Where two headings read alike, the source gives them in different places. Bounds are passed on as bounds.

In this experiment the target is DCN1 (DCUND1) protein PONY domain (Homo sapiens (Human), UniProt Q96GG9). The experiment in a line: TR-FRET assay, DCN1 binding with FAM-labeled probe. The essentials:
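TR-FRET ratio (Tb-DCN1 to FAM-probe) read at 1, 5 and 24 hrs after compound addition. Protein: recombinant PONY domain from E. coli, biotinylated and coupled to streptavidin terbium. Either 5 nM DCN1 with 20 nM FAM-probe, or 0.31 nM DCN1 with 100 nM FAM-labelled plus 800 nM unlabelled probe.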

[1] abbreviates: 24 hr after treatment with compound, read-out: TR FRET IC50 24 hr.
[2] abbreviates: TR FRET IC50 1 hr (nM), 1 hr after treatment with compound.
Setting [3] is: read-out: TR FRET IC50 1 hr, 1 hr after treatment with compound.

DCN1 (DCUND1) protein PONY domain, sequence (Q96GG9 60-248): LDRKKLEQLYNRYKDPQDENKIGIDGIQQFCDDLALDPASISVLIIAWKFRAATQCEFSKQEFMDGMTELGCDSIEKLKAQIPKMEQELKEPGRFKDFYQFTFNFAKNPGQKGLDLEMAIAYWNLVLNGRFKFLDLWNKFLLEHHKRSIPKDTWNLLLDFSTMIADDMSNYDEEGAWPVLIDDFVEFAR

For `CCN1C(=O)[C@@H](NC(=O)CC(C)(C)C)[C@@H](C2CC2)c2c(C(=O)N3[C@H](C#N)C[C@H]4C[C@H]43)nn(C3CCOCC3)c21` [Compound I-424], the IC50 fell in the range of 1000 to 3000 nM under setting [1] and 1000 to 3000 nM under setting [2].
Turning to `CCN1C(=O)[C@@H](NC(=O)CCc2cnn(C)c2)[C@@H](C2CC2)c2c(C(=O)N3[C@H](C#N)C[C@H]4C[C@H]43)nn(C3CCOCC3)c21` [Compound I-433], the IC50 lay in the range of 1000 to 3000 nM under setting [1] and 1000 to 3000 nM under setting [2].
`CCN1C(=O)[C@@H](NC(=O)C2CC(=O)N(Cc3ccccc3)C2)[C@@H](C2CC2)c2c(C(=O)N3[C@H](C#N)C[C@H]4C[C@H]43)nn(C3CCOCC3)c21` (some centres unmarked) [Compound I-435]: the IC50 by setting is: under setting [1], 1000 to 3000 nM; under setting [2], 1000 to 3000 nM.
On to `CCN1C(=O)[C@@H](NC(=O)C(C)c2cccc(F)c2)[C@@H](C2CC2)c2c(C(=O)N3[C@H](C#N)C[C@H]4C[C@H]43)nn(C3CCOCC3)c21` (some centres unmarked) [Compound I-440], for which the IC50 reads like this: under setting [1], 1000 to 3000 nM; under setting [2], 1000 to 3000 nM.
For the compound `CCN1C(=O)[C@@H](CC(=O)CC2CC2)[C@@H](C2CC2)c2c(C(=O)N3[C@H](C#N)C[C@H]4C[C@H]43)nn(C3CCOCC3)c21` [Compound I-466], the IC50 is, setting by setting: under setting [1], 1000 to 3000 nM; under setting [2], 1000 to 3000 nM.
As to `CCN1C(=O)[C@@H](NC(=O)c2cccc(C(F)(F)F)c2C)[C@@H](C2CC2)c2c(C(=O)N3[C@H](C#N)C[C@H]4C[C@H]43)nn(C3CCOCC3)c21` [Compound I-468], the IC50 is ≤ 200 nM under setting [1] and ≤ 200 nM under setting [3].
For `CCN1C(=O)[C@@H](NC(=O)c2sc(NC(C)=O)nc2C)[C@@H](C2CC2)c2c(C(=O)N3[C@H](C#N)C[C@H]4C[C@H]43)nn(C3CCOCC3)c21` [Compound I-471], the IC50 reads like this: under setting [1], 1000 to 3000 nM; under setting [2], 1000 to 3000 nM.
Regarding `CCN1C(=O)[C@@H](NC(=O)c2ccn(C(C)C)n2)[C@@H](C2CC2)c2c(C(=O)N3[C@H](C#N)C[C@H]4C[C@H]43)nn(C3CCOCC3)c21` [Compound I-472], the IC50 under setting [1] was ≤ 200 nM and the IC50 under setting [2] is 200 to 1000 nM.
The like results for `CCN1C(=O)[C@@H](NC(=O)c2c(Cl)cccc2Cl)[C@@H](C2CC2)c2c(C(=O)N3[C@H](C#N)C[C@H]4C[C@H]43)nn(C3CCOCC3)c21` [Compound I-473] were, in that order, 1000 to 3000 nM and 1000 to 3000 nM.
Regarding `CCN1C(=O)[C@@H](NC(=O)c2cc(S(C)(=O)=O)ccc2F)[C@@H](C2CC2)c2c(C(=O)N3[C@H](C#N)C[C@H]4C[C@H]43)nn(C3CCOCC3)c21` [Compound I-475], the IC50 is, setting by setting: under setting [1], 1000 to 3000 nM; under setting [2], 1000 to 3000 nM.
`CCN1C(=O)[C@@H](NC(=O)c2ccc(F)c(F)c2OC)[C@@H](C2CC2)c2c(C(=O)N3[C@H](C#N)C[C@H]4C[C@H]43)nn(C3CCOCC3)c21` [Compound I-502]: the IC50 by setting is: under setting [1], 200 to 1000 nM; under setting [2], 1000 to 3000 nM.
On to `CCN1C(=O)[C@@H](NC(=O)CC2=C(C)Cc3ccc(F)cc32)[C@@H](C2CC2)c2c(C(=O)N3[C@H](C#N)C[C@H]4C[C@H]43)nn(C3CCOCC3)c21` [Compound I-504], for which the IC50 reads like this: under setting [1], 1000 to 3000 nM; under setting [2], 1000 to 3000 nM.
Consider `CCN1C(=O)[C@@H](NC(=O)c2cccc(N3CCCC3=O)c2)[C@@H](C2CC2)c2c(C(=O)N3[C@H](C#N)C[C@H]4C[C@H]43)nn(C3CCOCC3)c21` [Compound I-505], for which the IC50 is, setting by setting: under setting [1], 1000 to 3000 nM; under setting [2], 1000 to 3000 nM.
In the case of `CCN1C(=O)[C@@H](NC(=O)c2cnn(CC(F)(F)F)c2)[C@@H](C2CC2)c2c(C(=O)N3[C@H](C#N)C[C@H]4C[C@H]43)nn(C3CCOCC3)c21` [Compound I-507], the IC50 by setting is: under setting [1], 1000 to 3000 nM; under setting [2], 1000 to 3000 nM.
Regarding `CCN1C(=O)[C@@H](NC(=O)c2ccc(C3CC3)cc2)[C@@H](C2CC2)c2c(C(=O)N3[C@H](C#N)C[C@H]4C[C@H]43)nn(C3CCOCC3)c21` [Compound I-508], the IC50 is ≤ 200 nM under setting [1] and 1000 to 3000 nM under setting [2].
Turning to `CCN1C(=O)[C@@H](NC(=O)CN2C(=O)CSc3ccccc32)[C@@H](C2CC2)c2c(C(=O)N3[C@H](C#N)C[C@H]4C[C@H]43)nn(C3CCOCC3)c21` [Compound I-510], the IC50 lay within 1000 to 3000 nM under setting [1] and 1000 to 3000 nM under setting [2].
In the case of `CCN1C(=O)[C@@H](NC(=O)Cc2ccc(C)cc2C)[C@@H](C2CC2)c2c(C(=O)N3[C@H](C#N)C[C@H]4C[C@H]43)nn(C3CCOCC3)c21` [Compound I-511], the IC50 was in the range of 1000 to 3000 nM under setting [1] and 1000 to 3000 nM under setting [2].
Consider `CCN1C(=O)[C@@H](NC(=O)c2nc3c(s2)CN(C)CC3)[C@@H](C2CC2)c2c(C(=O)N3[C@H](C#N)C[C@H]4C[C@H]43)nn(C3CCOCC3)c21` [Compound I-512], for which the IC50 is, setting by setting: under setting [1], 1000 to 3000 nM; under setting [2], 1000 to 3000 nM.
Regarding `CCN1C(=O)[C@@H](NC(=O)c2cnc(C(F)(F)F)s2)[C@@H](C2CC2)c2c(C(=O)N3[C@H](C#N)C[C@H]4C[C@H]43)nn(C3CCOCC3)c21` [Compound I-513], the IC50 was in the range of 1000 to 3000 nM under setting [1] and 1000 to 3000 nM under setting [2].
With `CCN1C(=O)[C@@H](NC(=O)C2CC2C(F)(F)F)[C@@H](C2CC2)c2c(C(=O)N3[C@H](C#N)C[C@H]4C[C@H]43)nn(C3CCOCC3)c21` (some centres unmarked) [Compound I-523], the IC50 is 1000 to 3000 nM under setting [1] and 1000 to 3000 nM under setting [2].
In the case of `CCN1C(=O)[C@@H](NC(=O)CS(C)(=O)=O)[C@@H](C2CC2)c2c(C(=O)N3[C@H](C#N)C[C@H]4C[C@H]43)nn(C3CCOCC3)c21` [Compound I-546], the IC50 under setting [1] fell in the range of 1000 to 3000 nM and the IC50 under setting [2] was 1000 to 3000 nM.
Regarding `CCN1C(=O)[C@@H](NC(=O)c2ccc3c(c2)CCO3)[C@@H](C2CC2)c2c(C(=O)N3[C@H](C#N)C[C@H]4C[C@H]43)nn(C3CCOCC3)c21` [Compound I-547], the IC50 runs as follows: under setting [1], ≤ 200 nM; under setting [2], 200 to 1000 nM.
In the same order, the values of `CCN1C(=O)[C@@H](NC(=O)c2ccccc2)[C@@H](C2CC2)c2c(C(=O)N3[C@H](C#N)C[C@H]4C[C@H]43)nn(C3CCOCC3)c21` [Compound I-553] are ≤ 200 nM and 200 to 1000 nM.
In the same order, the values of `CCN1C(=O)[C@@H](NC(=O)COc2ccc3c(c2)CCC3)[C@@H](C2CC2)c2c(C(=O)N3[C@H](C#N)C[C@H]4C[C@H]43)nn(C3CCOCC3)c21` [Compound I-554] are 1000 to 3000 nM and 1000 to 3000 nM.
In the same order, the values of `CCN1C(=O)[C@@H](NC(=O)CC#N)[C@@H](C2CC2)c2c(C(=O)N3[C@H](C#N)C[C@H]4C[C@H]43)nn(C3CCOCC3)c21` [Compound I-555] are 1000 to 3000 nM and 1000 to 3000 nM.
In the case of `CCN1C(=O)[C@@H](NC(=O)CCN2C(=O)COc3ccccc32)[C@@H](C2CC2)c2c(C(=O)N3[C@H](C#N)C[C@H]4C[C@H]43)nn(C3CCOCC3)c21` [Compound I-556], the IC50 fell in the range of 1000 to 3000 nM under setting [1] and 1000 to 3000 nM under setting [2].
For `CCN1C(=O)[C@@H](NC(=O)c2ccc(N3CCN(C)CC3)cn2)[C@@H](C2CC2)c2c(C(=O)N3[C@H](C#N)C[C@H]4C[C@H]43)nn(C3CCOCC3)c21` [Compound I-588], the IC50 under setting [1] fell in the range of 1000 to 3000 nM and the IC50 under setting [2] lay within 1000 to 3000 nM.
Turning to `CCN1C(=O)[C@@H](NC(=O)c2cncc(C(F)(F)F)n2)[C@@H](C2CC2)c2c(C(=O)N3[C@H](C#N)C[C@H]4C[C@H]43)nn(C3CCOCC3)c21` [Compound I-590], the IC50 is, setting by setting: under setting [1], 1000 to 3000 nM; under setting [2], 1000 to 3000 nM.
On to `CCN1C(=O)[C@@H](NC(=O)C2=NN(c3ccccc3)C(=O)C2)[C@@H](C2CC2)c2c(C(=O)N3[C@H](C#N)C[C@H]4C[C@H]43)nn(C3CCOCC3)c21` [Compound I-591], for which the IC50 lay within 1000 to 3000 nM under setting [1] and 1000 to 3000 nM under setting [2].
On to `CCN1C(=O)[C@@H](NC(=O)Cc2cccc(C(F)(F)F)c2)[C@@H](C2CC2)c2c(C(=O)N3[C@H](C#N)C[C@H]4C[C@H]43)nn(C3CCOCC3)c21` [Compound I-592], for which the IC50 under setting [1] was in the range of 1000 to 3000 nM and the IC50 under setting [2] was in the range of 1000 to 3000 nM.
With `CCN1C(=O)[C@@H](NC(=O)C2CCOc3ccccc32)[C@@H](C2CC2)c2c(C(=O)N3[C@H](C#N)C[C@H]4C[C@H]43)nn(C3CCOCC3)c21` (some centres unmarked) [Compound I-598], the IC50 under setting [1] lay within 1000 to 3000 nM and the IC50 under setting [2] is 1000 to 3000 nM.
`CCN1C(=O)[C@@H](NC(=O)CC2CC(=O)c3ccc(OC)cc32)[C@@H](C2CC2)c2c(C(=O)N3[C@H](C#N)C[C@H]4C[C@H]43)nn(C3CCOCC3)c21` (some centres unmarked) [Compound I-618]: the IC50 by setting is: under setting [1], 1000 to 3000 nM; under setting [2], 1000 to 3000 nM.
As to `CCOc1ccc(C)c(C(=O)N[C@@H]2C(=O)N(CC)c3c(c(C(=O)N4[C@H](C#N)C[C@H]5C[C@H]54)nn3C3CCOCC3)[C@@H]2C2CC2)c1` [Compound I-620], the IC50 is ≤ 200 nM under setting [1] and ≤ 200 nM under setting [3].
Turning to `CCN1C(=O)[C@@H](NC(=O)c2cc(F)ccc2C(F)(F)F)[C@@H](C2CC2)c2c(C(=O)N3[C@H](C#N)C[C@H]4C[C@H]43)nn(C3CCOCC3)c21` [Compound I-623], the IC50 reads like this: under setting [1], 1000 to 3000 nM; under setting [2], 1000 to 3000 nM.
Turning to `CCN1C(=O)[C@@H](NC(=O)c2ccc(C)c(C(F)(F)F)c2)[C@@H](C2CC2)c2c(C(=O)N3[C@H](C#N)C[C@H]4C[C@H]43)nn(C3CCOCC3)c21` [Compound I-627], the IC50 is ≤ 200 nM under setting [1] and ≤ 200 nM under setting [3].
For the compound `CCN1C(=O)[C@@H](NC(=O)C2CCC(F)(F)CC2)[C@@H](C2CC2)c2c(C(=O)N3[C@H](C#N)C[C@H]4C[C@H]43)nn(C3CCOCC3)c21` [Compound I-652], the IC50 lay in the range of 1000 to 3000 nM under setting [1] and 1000 to 3000 nM under setting [2].
`CCN1C(=O)[C@@H](NC(=O)c2ccc(C3CCN(C)CC3)cc2)[C@@H](C2CC2)c2c(C(=O)N3[C@H](C#N)C[C@H]4C[C@H]43)nn(C3CCOCC3)c21` [Compound I-653]: the IC50 by setting is: under setting [1], 1000 to 3000 nM; under setting [2], 1000 to 3000 nM.
